From US8471005B2 (Cephalon, Inc., priority 2008, dated 2013) come the findings set out here.

The target in assay [1] is T1, JAK2 (Homo sapiens, UniProt O60674).
T1 construct: host or cells: baculovirus expression system
The assay is described as follows: Recombinant Human JAK2 Kinase Assay (TRF). In kind it is biochemical. As to conditions: JAK2 kinase inhibition, 0.2 μM ATP; read-out: JAK2 Potency. A digest of the protocol:
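Europium-labelled PY100 antibody reported tyrosine phosphorylation of a Neutravidin-captured biotinyl 15-mer peptide by JAK2 (baculovirus-expressed, 15 ng/ml). Conditions: 20 mM HEPES pH 7.2, 0.2 μM ATP, 1 mM MnCl2, 0.1% BSA, DMSO 2.5% final, 20 min at room temperature.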

Assay [2] concerns the target T2, ALK (Homo sapiens, UniProt Q9UM73).
T2 construct: host or cells: baculovirus expression system
The assay is described as follows: ALK Kinase Assay (ELISA/TRF, PLC-γ substrate). Format: biochemical. As to conditions: ALK kinase inhibition, 1 μM ATP; read-out: ALK Potency. Summed up:
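PLC-γ coat 10 μg/mL in TBS; ALK 30 ng/ml added to start; 37° C, 15 min; Eu-N1 PT66 antibody detection (TRF). IC50: % inhibition vs log10 [cpd], variable-slope sigmoidal fit.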
For orientation: An ELISA detects its analyte on a solid surface through an enzyme-linked reagent.

T1 sequence (O60674 whole entry): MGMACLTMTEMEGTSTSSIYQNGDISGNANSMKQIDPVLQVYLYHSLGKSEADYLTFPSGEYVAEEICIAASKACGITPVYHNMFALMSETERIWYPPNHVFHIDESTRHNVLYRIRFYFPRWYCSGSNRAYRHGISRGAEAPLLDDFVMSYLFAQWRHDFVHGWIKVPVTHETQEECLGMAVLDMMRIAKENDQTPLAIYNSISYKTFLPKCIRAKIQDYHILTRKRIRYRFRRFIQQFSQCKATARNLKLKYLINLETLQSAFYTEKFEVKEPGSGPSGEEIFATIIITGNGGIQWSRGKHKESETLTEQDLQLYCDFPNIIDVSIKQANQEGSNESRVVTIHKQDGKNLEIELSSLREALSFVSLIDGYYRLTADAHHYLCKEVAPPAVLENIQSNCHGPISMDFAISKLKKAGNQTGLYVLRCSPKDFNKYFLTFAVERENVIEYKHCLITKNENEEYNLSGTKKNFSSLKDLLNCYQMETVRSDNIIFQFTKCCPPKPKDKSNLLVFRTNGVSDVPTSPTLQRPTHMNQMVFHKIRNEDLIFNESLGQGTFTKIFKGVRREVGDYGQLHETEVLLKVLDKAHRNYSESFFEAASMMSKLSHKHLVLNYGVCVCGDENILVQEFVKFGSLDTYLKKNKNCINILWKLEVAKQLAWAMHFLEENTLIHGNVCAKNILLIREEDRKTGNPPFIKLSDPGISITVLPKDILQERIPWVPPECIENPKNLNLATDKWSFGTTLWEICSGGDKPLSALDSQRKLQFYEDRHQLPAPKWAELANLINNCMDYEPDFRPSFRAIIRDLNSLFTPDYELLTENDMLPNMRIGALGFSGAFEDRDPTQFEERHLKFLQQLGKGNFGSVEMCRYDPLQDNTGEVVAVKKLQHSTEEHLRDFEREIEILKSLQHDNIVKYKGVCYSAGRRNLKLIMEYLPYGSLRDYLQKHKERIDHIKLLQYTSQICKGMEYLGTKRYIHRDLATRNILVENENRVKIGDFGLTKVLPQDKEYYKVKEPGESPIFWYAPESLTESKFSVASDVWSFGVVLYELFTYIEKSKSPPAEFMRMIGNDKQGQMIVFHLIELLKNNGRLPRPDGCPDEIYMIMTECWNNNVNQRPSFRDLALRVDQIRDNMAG
T2 sequence (Q9UM73 19-1620): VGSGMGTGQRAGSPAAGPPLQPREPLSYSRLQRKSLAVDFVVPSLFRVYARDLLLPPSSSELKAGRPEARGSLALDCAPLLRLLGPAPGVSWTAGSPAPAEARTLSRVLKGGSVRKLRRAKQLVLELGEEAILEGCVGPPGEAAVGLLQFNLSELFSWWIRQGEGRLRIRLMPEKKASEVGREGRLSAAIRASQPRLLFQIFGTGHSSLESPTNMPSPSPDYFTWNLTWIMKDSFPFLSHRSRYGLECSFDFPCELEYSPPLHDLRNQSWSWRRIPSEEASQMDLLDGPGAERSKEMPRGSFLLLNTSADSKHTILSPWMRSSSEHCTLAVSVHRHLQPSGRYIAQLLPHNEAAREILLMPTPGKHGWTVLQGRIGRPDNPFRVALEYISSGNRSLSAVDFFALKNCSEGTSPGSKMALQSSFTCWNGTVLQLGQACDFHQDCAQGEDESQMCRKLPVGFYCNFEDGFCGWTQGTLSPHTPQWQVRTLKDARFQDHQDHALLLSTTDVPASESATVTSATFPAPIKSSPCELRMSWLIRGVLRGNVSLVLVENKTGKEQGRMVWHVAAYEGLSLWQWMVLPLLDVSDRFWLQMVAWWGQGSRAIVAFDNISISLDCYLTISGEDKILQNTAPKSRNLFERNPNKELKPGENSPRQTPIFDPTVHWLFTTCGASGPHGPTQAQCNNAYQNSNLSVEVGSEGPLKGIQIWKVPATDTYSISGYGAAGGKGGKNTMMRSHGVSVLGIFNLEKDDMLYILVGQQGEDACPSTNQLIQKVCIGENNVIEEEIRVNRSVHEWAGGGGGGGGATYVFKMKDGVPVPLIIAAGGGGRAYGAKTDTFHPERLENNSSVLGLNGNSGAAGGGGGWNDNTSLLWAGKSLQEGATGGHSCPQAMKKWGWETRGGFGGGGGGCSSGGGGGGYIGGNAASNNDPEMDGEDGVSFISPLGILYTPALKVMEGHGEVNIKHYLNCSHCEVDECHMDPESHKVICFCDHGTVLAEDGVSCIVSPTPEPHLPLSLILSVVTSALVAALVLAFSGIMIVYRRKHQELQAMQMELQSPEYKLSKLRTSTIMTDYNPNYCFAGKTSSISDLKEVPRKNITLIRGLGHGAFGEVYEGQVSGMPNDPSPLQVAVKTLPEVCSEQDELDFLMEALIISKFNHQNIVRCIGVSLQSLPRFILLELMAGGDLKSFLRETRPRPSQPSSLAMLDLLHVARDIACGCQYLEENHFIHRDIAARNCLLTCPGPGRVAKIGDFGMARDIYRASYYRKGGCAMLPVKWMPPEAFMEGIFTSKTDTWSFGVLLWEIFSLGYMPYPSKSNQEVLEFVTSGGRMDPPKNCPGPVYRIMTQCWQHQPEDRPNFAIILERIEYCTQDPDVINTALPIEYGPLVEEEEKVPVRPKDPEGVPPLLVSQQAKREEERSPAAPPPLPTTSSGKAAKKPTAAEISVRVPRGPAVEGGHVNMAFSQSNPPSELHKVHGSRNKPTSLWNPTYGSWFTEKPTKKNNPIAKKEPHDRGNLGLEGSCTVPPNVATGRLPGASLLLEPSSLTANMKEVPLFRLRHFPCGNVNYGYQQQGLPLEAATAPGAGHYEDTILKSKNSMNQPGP

On to `CN1CCN(c2ccc(Nc3ncc4ccc(Cc5ccccc5)n4n3)cc2)CC1` [Example 1140, (7-Benzyl-pyrrolo[2,1-f][1,2,4]triazin-2-yl)-[4-(4-methyl-piperazin-1-yl)-phenyl]-amine], for which the IC50 in assay [1] and in assay [2] was under 100 nM throughout.

In the case of `CN1CCN(c2ccc(Nc3ncc4ccc(-c5ccccc5OCC#N)n4n3)cc2)CC1` [Example 1141, (2-{2-[4-(4-Methyl-piperazin-1-yl)-phenylamino]-pyrrolo[2,1-f][1,2,4]triazin-7-yl}-phenoxy)-acetonitrile], the IC50 in assay [1] and in assay [2] was under 100 nM each time.

As to `CN1CCN(c2ccc(Nc3ncc4ccc(-c5cccc(CCC#N)c5)n4n3)cc2)CC1` [Example 1142, 3-(3-{2-[4-(4-Methyl-piperazin-1-yl)-phenylamino]-pyrrolo[2,1-f][1,2,4]triazin-7-yl}-phenyl)-propionitrile], the IC50 in assay [1] and in assay [2] was under 100 nM throughout.

Turning to `CN1CCN(c2ccc(Nc3ncc4ccc(-c5cccc(C(=O)OC(C)(C)C)c5)n4n3)cc2)CC1` [Example 1143, 3-{2-[4-(4-Methyl-piperazin-1-yl)-phenylamino]-pyrrolo[2,1-f][1,2,4]triazin-7-yl}-benzoic acid tert-butyl ester], the IC50 in assay [1] was under 100 nM; in assay [2], 100 to 1000 nM.

Consider `N#CCOc1ccccc1-c1ccc2cnc(Nc3ccc(N4CCOCC4)cc3)nn12` [Example 1144, {2-[2-(4-Morpholin-4-yl-phenylamino)-pyrrolo[2,1-f][1,2,4]triazin-7-yl]-phenoxy}-acetonitrile], for which the IC50 in assay [1] and in assay [2] was under 100 nM in each case.

Take `N#CCCc1cccc(-c2ccc3cnc(Nc4ccc(N5CCOCC5)cc4)nn23)c1` [Example 1145, 3-{3-[2-(4-Morpholin-4-yl-phenylamino)-pyrrolo[2,1-f][1,2,4]triazin-7-yl]-phenyl}-propionitrile]: the IC50 in assay [1] was under 100 nM; in assay [2], 100 to 1000 nM.

Turning to `CCOC(=O)c1ccccc1-c1ccc2cnc(Nc3ccc(N4CCN(C)CC4)cc3)nn12` [Example 1146, 2-{2-[4-(4-Methyl-piperazin-1-yl)-phenylamino]-pyrrolo[2,1-f][1,2,4]triazin-7-yl}-benzoic acid ethyl ester], the IC50 in assay [1] was under 100 nM; in assay [2], 100 to 1000 nM.

With `C#CCNC(=O)c1cccc(-c2ccc3cnc(Nc4ccc(N5CCN(C)CC5)cc4)nn23)c1` [Example 1147, 3-{2-[4-(4-Methyl-piperazin-1-yl)-phenylamino]-pyrrolo[2,1-f][1,2,4]triazin-7-yl}-N-prop-2-ynyl-benzamide], the IC50 in assay [1] was under 100 nM; in assay [2], 100 to 1000 nM.

As to `N#CCCc1cccc(-c2ccc3cnc(Nc4ccc5c(c4)CCC(N4CCOCC4)CC5)nn23)c1` (centres unmarked) [Example 1148, 3-{3-[2-(7-Morpholin-4-yl-6,7,8,9-tetrahydro-5H-benzocyclohepten-2-ylamino)-pyrrolo[2,1-f][1,2,4]triazin-7-yl]-phenyl}-propionitrile], the IC50 in assay [1] and in assay [2] was under 100 nM throughout.

Turning to `CN1CCC(c2ccc(Nc3ncc4ccc(-c5cccc(CCC#N)c5)n4n3)cc2)CC1` [Example 1149, 3-(3-{2-[4-(1-Methyl-piperidin-4-yl)-phenylamino]-pyrrolo[2,1-f][1,2,4]triazin-7-yl}-phenyl)-propionitrile], the IC50 in assay [1] and in assay [2] was under 100 nM each time.

For the compound `N#CCCc1cccc(-c2ccc3cnc(Nc4ccc(N5CCC(N6CCOCC6)CC5)cc4)nn23)c1` [Example 1150, 3-(3-{2-[4-(4-Morpholin-4-yl-piperidin-1-yl)-phenylamino]-pyrrolo[2,1-f][1,2,4]triazin-7-yl}-phenyl)-propionitrile], the IC50 in assay [1] and in assay [2] was under 100 nM each time.

Regarding `N#CCCc1cccc(-c2ccc3cnc(Nc4ccc(N5CCN(CCO)CC5)cc4)nn23)c1` [Example 1151, 3-[3-(2-{4-[4-(2-Hydroxy-ethyl)-piperazin-1-yl]-phenylamino}-pyrrolo[2,1-f][1,2,4]triazin-7-yl)-phenyl]-propionitrile], the IC50 in assay [1] and in assay [2] was under 100 nM throughout.

In the case of `COCCN1CCc2ccc(Nc3ncc4ccc(-c5cccc(CCC#N)c5)n4n3)cc2CC1` [Example 1152, 3-(3-{2-[3-(2-Methoxy-ethyl)-2,3,4,5-tetrahydro-1H-benzo[d]azepin-7-ylamino]-pyrrolo[2,1-f][1,2,4]triazin-7-yl}-phenyl)-propionitrile], the IC50 in assay [1] and in assay [2] was under 100 nM throughout.

Take `CN1CCN(c2cccc(Nc3ncc4ccc(-c5cccc(CCC#N)c5)n4n3)c2)CC1` [Example 1153, 3-(3-{2-[3-(4-Methyl-piperazin-1-yl)-phenylamino]-pyrrolo[2,1-f][1,2,4]triazin-7-yl}-phenyl)-propionitrile]: the IC50 in assay [1] and in assay [2] was under 100 nM each time.

As for `CN1CCN(c2ccc(Nc3ncc4ccc(-c5ccccc5O)n4n3)cc2)CC1` [Example 1154, 2-{2-[4-(4-Methyl-piperazin-1-yl)-phenylamino]-pyrrolo[2,1-f][1,2,4]triazin-7-yl}-phenol], the IC50 in assay [1] and in assay [2] was under 100 nM each time.

Consider `CN1CCN(c2ccc(Nc3ncc4cc(-c5ccccc5OCC#N)cn4n3)cc2)CC1` [Example 1155, (2-{2-[4-(4-Methyl-piperazin-1-yl)-phenylamino]-pyrrolo[2,1-f][1,2,4]triazin-6-yl}-phenoxy)-acetonitrile], for which the IC50 in assay [1] was 100 to 1000 nM; in assay [2], 1000 to 10000 nM.

For the compound `COc1ccccc1-c1cc2cnc(Nc3ccc(N4CCN(C)CC4)cc3)nn2c1` [Example 1156, [6-(2-Methoxy-phenyl)-pyrrolo[2,1-f][1,2,4]triazin-2-yl]-[4-(4-methyl-piperazin-1-yl)-phenyl]-amine], the values for the IC50 in assay [1] and in assay [2] were 100 to 1000 nM and 1000 to 10000 nM, respectively.

As to `CN1CCN(c2ccc(Nc3ncc4cc(-c5ccncc5)cn4n3)cc2)CC1` [Example 1158], the IC50 in assay [1] is under 100 nM; in assay [2], over 10000 nM.

As to `COc1cc(N2CCC(N3CCOCC3)CC2)ccc1Nc1ncc2ccc(-c3cccc(CCC#N)c3)n2n1` [Example 1159, 3-(3-{2-[2-Methoxy-4-(4-morpholin-4-yl-piperidin-1-yl)-phenylamino]-pyrrolo[2,1-f][1,2,4]triazin-7-yl}-phenyl)-propionitrile], the IC50 in assay [1] and in assay [2] was under 100 nM in each case.

For `CN1CCN(c2ccc(Nc3ncc4cc(-c5cccc(CCC#N)c5)cn4n3)cc2)CC1` [Example 1161, 3-(3-{2-[4-(4-Methyl-piperazin-1-yl)-phenylamino]-pyrrolo[2,1-f][1,2,4]triazin-6-yl}-phenyl)-propionitrile], the IC50 in assay [1] was under 100 nM; in assay [2], 100 to 1000 nM.

Regarding `CN1CCN(c2ccc(Nc3ncc4ccc(-c5cccc(CNCCS(C)(=O)=O)c5)n4n3)cc2)CC1` [Example 1162, (7-{3-[(2-Methanesulfonyl-ethylamino)-methyl]-phenyl}-pyrrolo[2,1-f][1,2,4]triazin-2-yl)-[4-(4-methyl-piperazin-1-yl)-phenyl]-amine], the IC50 in assay [1] was under 100 nM; in assay [2], 100 to 1000 nM.

With `CN1CCN(c2ccc(Nc3ncc4ccc(NCc5cccc([N+](=O)[O-])c5)n4n3)cc2)CC1` [Example 1163, N(2)-[4-(4-Methyl-piperazin-1-yl)-phenyl]-N(7)-(3-nitro-benzyl)-pyrrolo[2,1-f][1,2,4]triazine-2,7-diamine], the IC50 was under 100 nM in assay [1] and 100 to 1000 nM in assay [2].
